The assay concerns production of CD69 by B lymphocytes in human whole blood. Nature of the assay: CD69 Whole Blood Assay (CD69 Hu Blood FACS). The class given is cell-based. As to conditions: human whole blood activated with goat F(ab')2 anti-human IgM, 20 hours; CD69 on CD20 positive cells by FACS; Table 2. The method, boiled down:
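Heparinized human whole blood from drug-free non-smoking donors was preincubated 30 min at 37° C. with compound (ten-point three-fold series, duplicate). It was then stimulated with goat F(ab′)2 anti-human IgM (50 μg/ml final) for 20 hours, stained, lysed and read by flow cytometry as MFI. IC50/IC70/IC90 were derived by nonlinear regression.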
In general terms: A flow cytometer gives signals particle by particle.

The structures appear in SMILES notation.

Molecule `Cn1ccc(Nc2cc(-c3ccnc(-n4ncc5cc(C(C)(C)C)cc(F)c5c4=O)c3CO)cn(C)c2=O)n1` [Compound 140, 6-tert-butyl-8-fluoro-2-[3-(hydroxymethyl)-4-[1-methyl-5-[(1-methylpyrazol-3-yl)amino]-6-oxo-3-pyridyl]-2-pyridyl]phthalazin-1-one] registered a CD69 Hu Blood FACS (IC70) of 0.068 µM.

Source of the values: patent publication US8669251B2, “8-fluorophthalazin-1(2H)-one compounds” (Genentech, Inc., priority 2011, dated 2014).
